Data as given in PMC6416464 (Drug Metabolism Letters, 2018).

What was measured:
[1] = target: T1, CYP3A4 (Homo sapiens, UniProt P08684); test: in vitro; details: microsomes, pH 7.4
[2] = target: T2, rCYP1A2 (Homo sapiens, UniProt P05177); test: Metabolic stability / reaction phenotyping with recombinant human CYP1A2
T2 sequence (P05177 1-516): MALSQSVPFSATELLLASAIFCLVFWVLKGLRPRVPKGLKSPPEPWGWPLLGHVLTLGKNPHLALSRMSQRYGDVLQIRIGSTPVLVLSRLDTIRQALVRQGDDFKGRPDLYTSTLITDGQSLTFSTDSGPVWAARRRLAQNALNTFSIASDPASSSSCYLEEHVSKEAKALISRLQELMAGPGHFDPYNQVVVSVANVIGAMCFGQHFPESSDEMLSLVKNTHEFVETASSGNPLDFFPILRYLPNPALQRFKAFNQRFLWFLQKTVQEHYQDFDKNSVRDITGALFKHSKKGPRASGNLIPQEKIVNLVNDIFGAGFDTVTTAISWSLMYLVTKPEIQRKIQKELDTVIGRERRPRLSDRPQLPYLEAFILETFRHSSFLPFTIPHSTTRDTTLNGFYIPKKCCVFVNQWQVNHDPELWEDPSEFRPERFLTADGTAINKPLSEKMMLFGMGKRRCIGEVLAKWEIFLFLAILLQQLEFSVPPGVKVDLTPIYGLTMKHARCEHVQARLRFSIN

[3] = target: rCYP2C19 (Homo sapiens, UniProt P33261); test: Metabolic stability / reaction phenotyping with recombinant human CYP2C19
rCYP2C19, sequence (P33261 whole entry): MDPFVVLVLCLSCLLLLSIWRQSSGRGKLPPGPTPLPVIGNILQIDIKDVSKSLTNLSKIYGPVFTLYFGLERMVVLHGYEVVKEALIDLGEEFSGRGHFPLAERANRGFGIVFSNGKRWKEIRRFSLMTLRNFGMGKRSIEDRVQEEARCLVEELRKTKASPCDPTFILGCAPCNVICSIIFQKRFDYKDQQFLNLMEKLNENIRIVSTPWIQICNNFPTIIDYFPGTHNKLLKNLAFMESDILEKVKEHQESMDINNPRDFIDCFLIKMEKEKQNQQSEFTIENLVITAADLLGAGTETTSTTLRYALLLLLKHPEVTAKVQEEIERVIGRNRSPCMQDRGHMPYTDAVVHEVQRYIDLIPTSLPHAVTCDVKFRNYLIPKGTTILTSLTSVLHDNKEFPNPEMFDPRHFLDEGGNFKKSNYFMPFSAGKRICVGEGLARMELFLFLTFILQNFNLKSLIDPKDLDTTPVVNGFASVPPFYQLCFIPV

[4] = target: rCYP2D6 (Homo sapiens, UniProt P10635); test: Metabolic stability / reaction phenotyping with recombinant human CYP2D6
rCYP2D6, sequence (P10635 whole entry): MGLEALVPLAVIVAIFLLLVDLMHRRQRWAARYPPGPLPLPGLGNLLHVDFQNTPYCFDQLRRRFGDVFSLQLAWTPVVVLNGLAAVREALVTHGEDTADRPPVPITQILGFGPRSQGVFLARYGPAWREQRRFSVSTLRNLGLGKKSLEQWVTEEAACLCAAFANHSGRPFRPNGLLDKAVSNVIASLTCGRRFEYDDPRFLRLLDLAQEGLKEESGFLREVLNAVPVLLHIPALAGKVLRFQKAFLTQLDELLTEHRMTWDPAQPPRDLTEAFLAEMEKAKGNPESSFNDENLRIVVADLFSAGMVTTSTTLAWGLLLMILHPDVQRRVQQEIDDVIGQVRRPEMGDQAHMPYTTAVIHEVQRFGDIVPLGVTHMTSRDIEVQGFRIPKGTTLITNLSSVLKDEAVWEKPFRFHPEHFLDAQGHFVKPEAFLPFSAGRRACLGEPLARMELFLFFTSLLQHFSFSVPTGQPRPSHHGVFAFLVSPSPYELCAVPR

[5] = target: T3, CYP1A2 (Homo sapiens, UniProt P05177); test: CYP inhibition in human liver microsomes, CYP1A2
T3 sequence (P05177 1-516): T2 sequence (P05177 1-516)

[6] = target: rCYP2C9 (Homo sapiens, UniProt P11712); test: Metabolic stability / reaction phenotyping with recombinant human CYP2C9
rCYP2C9, sequence (P11712 whole entry): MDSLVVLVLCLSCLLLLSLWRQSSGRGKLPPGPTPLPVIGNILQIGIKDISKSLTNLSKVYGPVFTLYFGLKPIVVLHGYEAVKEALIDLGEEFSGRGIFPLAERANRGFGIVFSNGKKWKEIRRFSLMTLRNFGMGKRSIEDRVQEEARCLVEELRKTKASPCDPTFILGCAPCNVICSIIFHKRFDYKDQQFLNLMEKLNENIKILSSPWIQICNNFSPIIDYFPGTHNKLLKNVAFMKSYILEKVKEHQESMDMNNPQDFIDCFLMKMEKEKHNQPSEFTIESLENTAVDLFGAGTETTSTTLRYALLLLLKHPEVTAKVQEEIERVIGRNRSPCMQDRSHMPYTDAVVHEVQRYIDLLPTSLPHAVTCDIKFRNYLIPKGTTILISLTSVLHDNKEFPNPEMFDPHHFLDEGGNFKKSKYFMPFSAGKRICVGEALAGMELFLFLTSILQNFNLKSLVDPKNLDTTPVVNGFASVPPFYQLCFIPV

[7] = target: T4, rCYP2C8 (Homo sapiens, UniProt P10632); test: Metabolic stability / reaction phenotyping with recombinant human CYP2C8
T4 sequence (P10632 1-490): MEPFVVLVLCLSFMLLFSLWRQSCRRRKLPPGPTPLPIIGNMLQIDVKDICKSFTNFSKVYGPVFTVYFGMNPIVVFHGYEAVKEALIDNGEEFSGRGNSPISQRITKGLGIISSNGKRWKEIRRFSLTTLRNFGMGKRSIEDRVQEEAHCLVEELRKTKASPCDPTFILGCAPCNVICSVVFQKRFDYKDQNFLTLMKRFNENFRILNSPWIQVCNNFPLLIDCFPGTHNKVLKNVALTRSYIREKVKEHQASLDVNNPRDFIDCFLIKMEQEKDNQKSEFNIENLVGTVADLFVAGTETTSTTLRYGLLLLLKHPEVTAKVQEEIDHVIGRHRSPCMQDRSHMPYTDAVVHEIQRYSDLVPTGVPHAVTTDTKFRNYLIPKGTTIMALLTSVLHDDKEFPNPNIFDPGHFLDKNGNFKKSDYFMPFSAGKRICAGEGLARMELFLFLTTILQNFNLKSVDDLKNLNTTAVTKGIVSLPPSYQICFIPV

[8] = target: T5, CYP2C8 (Homo sapiens, UniProt P10632); test: CYP inhibition in human liver microsomes, CYP2C8; details: human, human liver microsomes, pH 7.4, probe paclitaxel
T5 sequence (P10632 1-490): T4 sequence (P10632 1-490)

[9] = Metabolic stability, incubation with human liver microsomes; details: 1 µM test compound, 0.5 mg/mL protein
[10] = target: T1, CYP3A4; test: in vitro; details: microsomes, pH 7.4, % Inhibition of Control Activity CYP3A4 (substrate, testosterone)
[11] = Metabolic stability, incubation with human liver cytosol; type: in vitro ADME; details: 1 µM test compound, 1 mg/mL protein
[12] = target: rCYP3A4 (Homo sapiens, UniProt P08684)
rCYP3A4, sequence (P08684 whole entry): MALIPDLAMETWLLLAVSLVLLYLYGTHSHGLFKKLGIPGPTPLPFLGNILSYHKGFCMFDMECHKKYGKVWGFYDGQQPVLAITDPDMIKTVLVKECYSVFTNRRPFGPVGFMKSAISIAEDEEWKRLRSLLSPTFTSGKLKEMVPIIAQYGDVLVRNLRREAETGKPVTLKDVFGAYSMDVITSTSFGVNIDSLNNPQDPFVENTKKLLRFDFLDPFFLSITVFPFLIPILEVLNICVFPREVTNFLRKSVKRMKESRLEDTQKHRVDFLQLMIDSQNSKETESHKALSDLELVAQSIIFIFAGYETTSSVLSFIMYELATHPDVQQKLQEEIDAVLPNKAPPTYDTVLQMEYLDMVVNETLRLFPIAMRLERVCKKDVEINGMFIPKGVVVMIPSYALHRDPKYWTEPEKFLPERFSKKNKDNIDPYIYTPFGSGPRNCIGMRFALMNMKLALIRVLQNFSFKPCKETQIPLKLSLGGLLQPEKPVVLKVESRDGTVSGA

[13] = 1 µM test compound, 100 pmol/mL, 30 min
[14] = human, recombinant human CYP1A2, 1 µM, pH 7.4
[15] = human, recombinant human CYP2C19, 1 µM, pH 7.4
[16] = human, recombinant human CYP2D6, 1 µM, pH 7.4
[17] = human, recombinant human CYP2C9, 1 µM, pH 7.4
[18] = human, recombinant human CYP2C8, 1 µM, pH 7.4
[19] = human, recombinant enzyme, pH 7.4

T1 sequence (P08684 2-503): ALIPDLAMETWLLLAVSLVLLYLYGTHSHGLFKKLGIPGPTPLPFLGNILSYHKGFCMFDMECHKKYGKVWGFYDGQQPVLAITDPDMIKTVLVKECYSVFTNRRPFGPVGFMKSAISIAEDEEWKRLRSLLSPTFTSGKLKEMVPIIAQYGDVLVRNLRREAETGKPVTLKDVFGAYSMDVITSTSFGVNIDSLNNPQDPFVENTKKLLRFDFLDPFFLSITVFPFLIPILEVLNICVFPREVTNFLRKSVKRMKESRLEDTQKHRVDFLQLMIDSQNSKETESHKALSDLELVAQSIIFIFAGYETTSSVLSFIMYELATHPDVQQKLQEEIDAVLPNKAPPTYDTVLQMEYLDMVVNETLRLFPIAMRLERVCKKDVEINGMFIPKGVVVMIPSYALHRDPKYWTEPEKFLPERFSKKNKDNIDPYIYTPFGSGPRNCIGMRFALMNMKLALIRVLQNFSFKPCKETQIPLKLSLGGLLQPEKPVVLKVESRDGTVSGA

CNC(=O)Oc1cc(C)c(SC)c(C)c1 [Methiocarb, methiocarb]
inhibition at 2 µM [1]: < 0% | inhibition at 10 µM [1]: < 0% | % Metabolized at 30 min Incubation with Human Liver Fractions/Enzymes rCYP1A2 [2, 13]: 46.94% | % Contribution of CYP Enzymes (fmCYP) in Metabolism, CYP1A2 [2, 14]: 4.75% | Predicted Microsomal Clint, CYP1A2 [2, 14]: 10.987 µL/min/mg Protein | rCYP Clint, CYP1A2 [2, 14]: 0.211 µL/min/pmol | % Metabolized at 30 min Incubation with Human Liver Fractions/Enzymes rCYP2C19 [3, 13]: 19.42% | % Contribution of CYP Enzymes (fmCYP) in Metabolism, CYP2C19 [3, 15]: 0.59% | Predicted Microsomal Clint, CYP2C19 [3, 15]: 1.367 µL/min/mg Protein | rCYP Clint, CYP2C19 [3, 15]: 0.072 µL/min/pmol | % Metabolized at 30 min Incubation with Human Liver Fractions/Enzymes rCYP2D6 [4, 13]: 99.43% | % Contribution of CYP Enzymes (fmCYP) in Metabolism, CYP2D6 [4, 16]: 7.46% | Predicted Microsomal Clint, CYP2D6 [4, 16]: 17.239 µL/min/mg Protein | rCYP Clint, CYP2D6 [4, 16]: 1.724 µL/min/pmol | IC50 [5]: 710 nM | % Metabolized at 30 min Incubation with Human Liver Fractions/Enzymes rCYP2C9 [6, 13]: 6.50% | % Contribution of CYP Enzymes (fmCYP) in Metabolism, CYP2C9 [6, 17]: 0.93% | Predicted Microsomal Clint, CYP2C9 [6, 17]: 2.151 µL/min/mg Protein | rCYP Clint, CYP2C9 [6, 17]: 0.022 µL/min/pmol | % Metabolized at 30 min Incubation with Human Liver Fractions/Enzymes rCYP2C8 [7, 13]: 41.44% | % Contribution of CYP Enzymes (fmCYP) in Metabolism, CYP2C8 [7, 18]: 4.94% | Predicted Microsomal Clint, CYP2C8 [7, 18]: 11.416 µL/min/mg Protein | rCYP Clint, CYP2C8 [7, 18]: 0.178 µL/min/pmol | inhibition at 2 µM [8]: < 0% | inhibition at 10 µM [8]: < 0% | % Metabolized at 30 min Incubation with Human Liver Fractions/Enzymes HLM [9]: 78.39% | inhibition at 2 µM [10]: 8.34% | inhibition at 10 µM [10]: 29.7% | % Metabolized at 30 min Incubation with Human Liver Fractions/Enzymes Cytosol [11]: 6.93% | % Metabolized at 30 min Incubation with Human Liver Fractions/Enzymes rCYP3A4 [12, 13]: 98.38% | Predicted Microsomal Clint, CYP3A4 ([12]; human, pH 7.4): 188.076 µL/min/mg Protein | % Contribution of CYP Enzymes (fmCYP) in Metabolism, CYP3A4 [12, 19]: 81.34% | rCYP Clint, CYP3A4 [12, 19]: 1.694 µL/min/pmol
